According to article PMC4650734, “FV-162 is a novel, orally bioavailable, irreversible proteasome inhibitor with improved pharmacokinetics displaying preclinical efficacy with continuous daily dosing” (Cell Death & Disease, 2015):

How the values were obtained:
[1] = system: CD138- normal hematopoietic cells; assay: Annexin V flow cytometry viability of primary bone marrow mononuclear cells, normal fraction; type: cell-based, human; settings: 48 h; for sensitivity of CD138- normal hematopoietic cells: concentrations ⩽0.1 μM for FV-162, similar concentrations for ONX-0912
Experimental: Human multiple myeloma cell lines 8226, H929, JJN3, KMH11, KMS11, KMS18, LP1, MM.1 S, OPM2, and U266 were grown in Iscove's modified Dulbecco's medium (IMDM). Cell lines were authenticated with short tandem repeat method in September 2011. In addition, cell lines were continually monitored by morphological inspection. Primary mononuclear cells were isolated from peripheral blood or bone marrow samples from multiple myeloma patients at the Princess Margaret Cancer Centre (Toronto, ON, Canada) by Ficoll density gradient centrifugation and cultured in IMDM. All cell culture media were obtained from the Ontario Cancer Institute Tissue Culture Media Facility (Toronto, ON, Canada) and were supplemented with 10% fetal calf serum, 100 μg/ml penicillin, and 100 μg/ml streptomycin (Hyclone, Logan, UT, USA). […] Cellular viability was primarily assessed by MTS assay according to the manufacturer's instructions (Promega, Madison, WI, USA). Ten thousand cells per well were seeded in triplicate in tissue culture-treated 96-well plates. Two hours after seeding, cells were treated with proteasome inhibitors for 72 h (0.01–10 μM) or DMSO vehicle control. Cell viability was independently confirmed by reading the optical density at 490 nm and by exclusion of trypan blue stain (Invitrogen, Burlington, ON, Canada). Viability of primary mononuclear cells was determined by Annexin V–fluorescein isothiocyanate and propidium iodide co-staining (Biovision Research Products, Mountain View, CA, USA) using flow cytometry according to the manufacturer's instructions after 48 h of treatment with inhibitors or vehicle control.

[2] = Pharmacokinetic study in NOD/SCID mice; type: in vivo; settings: plasma, mouse; for bioavailability: 25 mg/kg p.o. vs 5 mg/kg i.v.
Experimental: NOD/SCID mice were administered FV-162 or ONX-0912 at doses of 5 mg/kg intravenously or 25 mg/kg by oral gavage in a 12.5% ethanol, 12.5% Tween-80 vehicle (3 mice per group). Venous blood samples (20–50 μl) were collected at 5, 15, 30 min, and 1, 2, and 4 h postdose. Plasma was separated from whole blood by centrifugation and stored at −20 °C until analysis. […] Venous blood samples (20–50 μl) were collected at 5, 10, 30, and 60 min postdose. Plasma was separated from whole blood by centrifugation and stored at −20 °C until analysis. The Cmax, its associated time (Tmax), the terminal half-life (t1/2), area under the plasma concentration–time curve (AUC), clearance (CL), and volume of distribution (Vd) were evaluated using Pheonix WinNonlin 6.2.1 (Princeton, NJ, USA), and relative oral bioavailability (F%) values were calculated as follows: F%=AUCoral gavage/AUCintravenous × 100.

[3] = Dose tolerance studies / MTD in mice; settings: NOD/SCID, mouse, in vivo, po
Experimental: NOD/SCID mice were administered FV-162 (30 mg/kg daily, 7 days/week) in a 5% DMSO, 20% Cremophor vehicle by oral gavage or ONX-0912 (30 mg/kg daily, 7 days/week) in a 5% DMSO, 20% Cremophor vehicle by oral gavage for a week. Mice were monitored for changes in body weight, behavior, and physical appearance.

[4] = system: MM.1S human myeloma cells; assay: Subcutaneous MM.1S myeloma xenograft model; type: in vivo, NOD/SCID mice; settings: for tumor burden compared with vehicle control: P<0.01 by day 24, P<0.001 after 27 days
Experimental: Human MM.1S myeloma cells (5 × 10^6) were injected subcutaneously into 6–8-week-old female NOD/SCID mice (10 mice per group). When tumors were palpable, mice were administered vehicle by oral gavage (5% DMSO, 20% Cremophor; once daily × 3 weeks), carfilzomib intravenously (5 mg/kg, once daily on days 1 and 2 of each week × 3 weeks), ONX-0912 by oral gavage (30 mg/kg, once daily on days 1 and 2 of each week × 3 weeks), or FV-162 by oral gavage (30 mg/kg or 100 mg/kg, once daily × 3 weeks). Over time, tumor volume (tumor length × width^2 × 0.5236) was measured with calipers (Control Company, Friendswood, TX, USA), and mouse body weight was monitored.

[5] = system: CT-L proteasome activity; assay: CT-L proteasome activity in RBCs of treated mice; type: in vivo, mouse; settings: for duration of inhibition of proteasome activity in isolated RBCs: after single oral treatment of mice; for inhibition of CT-L activity in RBCs compared with ONX-0912 (30 mg/kg): up to 24 h postdose
Experimental: Cells were harvested by centrifugation at 1200 r.p.m. at room temperature. Cell pellets were washed with PBS and lysed with assay lysis buffer (50 mM HEPES (2-[4-(2-hydroxyethyl) piperazin-1-yl]ethanesulfonic acid)), pH 7.5; 150 mM NaCl; 1% Triton X-100; 2 mM ATP). Cell lysates were incubated on ice for 30 min, mixed by vortex every 5 min, and centrifuged at 12 000 × g for 10 min. Supernatants were transferred to a 96-well plate in triplicate. For each assay, 10 μg of total protein were incubated for 1 h at 37 °C with increasing concentrations (0.001–10 μM) of test compound or vehicle control diluted in assay buffer (50 mM Tris-HCl (tris(hydroxymethyl)aminomethane-HCl), pH 7.5; 150 mM NaCl). After incubation, a specific fluorogenic proteasome substrate was added to each assay reaction (40 μM in a total volume of 100 μl). N-Succinyl-Leu-Leu-Val-Tyr-7-amino-4-methylcoumarin (Suc-Leu-Leu-Val-Tyr-AMC) was used for measuring CT-L activity, t-butoxycarbonyl- Leu-Arg-Arg-7-amino-4-methylcoumarin (Boc-Leu-Arg-Arg-AMC) for T-L activity, and benzyloxycarbonyl-L-leucyl-L-leucyl-L-glutamyl-7-amino-4-methylcoumarin (Z-Leu-Leu-Glu-AMC) for C-L activity. The excitation wavelength was 360 nm and the fluorescence emission of free AMC released during the enzymatic reaction was detected at 460 nm on a SpectraMax M5 fluorescent spectrophotometric plate reader (Molecular Devices, Sunnyvale, CA, USA). AMC release rate was measured at 37 °C in a kinetic mode, recording every 5 min for 30 min.
Five-to-six-week-old male NOD/SCID mice were administered vehicle (5% DMSO, 20% Cremophor) or proteasome inhibitors either intravenously or by oral gavage (3 mice per group), and 20–50 μl of venous blood were collected from each mouse over 24 h. Blood samples were mixed with heparin (APP Pharmaceuticals; Schaumburg, IL, USA) in 0.5-ml tubes in accordance with the manufacturer's instructions. After centrifugal separation at 3000 × g for 10 min, RBCs in the bottom layer were transferred into a new tube and stored at −70 °C until use. RBCs were lysed with assay lysis buffer and incubated on ice for 30 min, mixing by vortex every 5 min, and centrifuged at 12 000 × g for 10 min. Supernatants were transferred to a 96-well plate and proteasome activity was measured as described in 'Cell lysates' section.

Structure (SMILES)	CD138- cells to which compound was toxic ([1]; 0.5 μM) [%]	sensitivity of CD138- normal hematopoietic cells [1]	AUC ([2]; iv, 5 mg/kg i.v.) [ng·h/mL]	Cmax ([2]; iv, 5 mg/kg i.v.) [ng/mL]	Tmax ([2]; iv, 5 mg/kg i.v.) [min]	Vd ([2]; iv, 5 mg/kg i.v.) [L/kg]	clearance ([2]; iv, 5 mg/kg i.v.) [mL/min/kg]	half-life ([2]; iv, 5 mg/kg i.v.) [min]	AUC ([2]; po, 25 mg/kg p.o.) [ng·h/mL]	Cmax ([2]; po, 25 mg/kg p.o.) [ng/mL]	Tmax ([2]; po, 25 mg/kg p.o.) [min]	bioavailability ([2]; po) [%]	MTD [3] [mg/kg]	tumor burden compared with vehicle control ([4]; 30 mg/kg daily by oral gavage)	tumor burden compared with vehicle control ([4]; 100 mg/kg daily by oral gavage)	tumor growth reduction compared with ONX-0912 (30 mg/kg) ([4]; 100 mg/kg daily, by 27 days after inoculation, P<0.05)	duration of inhibition of proteasome activity in isolated RBCs [5]	inhibition of CT-L activity in RBCs compared with ONX-0912 (30 mg/kg) ([5]; single oral dose 30 mg/kg)	inhibition of CT-L activity in RBCs compared with ONX-0912 (30 mg/kg) ([5]; single oral dose 100 mg/kg (half the MTD))	tumor burden compared with vehicle control ([4]; 30 mg/kg twice weekly by oral gavage)
Cc1ncc(C(=O)N[C@@H](COC(F)F)C(=O)N[C@@H](COC(F)F)C(=O)N[C@@H](Cc2ccccc2)C(=O)[C@@]2(C)CO2)s1 [FV-162]	50	largely insensitive	111	268	5	96	702	95	51.9	21	60	10	200	significantly reduced tumor burden	significantly reduced tumor burden	greater reduction in tumor growth	sustained for up to 24 h	less inhibition of the CT-L activity than ONX-0912	performed similarly to almost the MTD of ONX-0912	–
COC[C@H](NC(=O)c1cnc(C)s1)C(=O)N[C@@H](COC)C(=O)N[C@@H](Cc1ccccc1)C(=O)[C@@]1(C)CO1 [ONX-0912, reference compound]	–	no adverse effects	54.1	187	5	48	1490	22	8.55	38	5	3	40	–	–	–	sustained for up to 24 h	–	–	significantly reduced tumor burden
